Data reported in patent US7629347B2, “Protein tyrosine kinase inhibitors” (Critical Outcome Technologies, Inc., priority 2002, dated 2009).
Counter-ions that a name gives are not always drawn. Like-named read-outs stand apart in the source and are kept apart here.

What was measured:
Leukemia Cell Line K562 = test: in vitro test on cell line K562; type: cell-based; settings: Homo sapiens
Protocol: (§1) The COTI-001 compound was tested in vitro on a variety of cell lines comparing its effect to a known protein tyrosine kinase inhibitor used in the treatment of certain cancers.

Leukemia Cell Line P388 = test: in vitro test on cell line P388; type: cell-based, murine; settings: Mus musculus
Protocol: as §1

[1] = system: Breast Cancer Cell Line MCF7; test: in vitro test on cell line MCF7; type: cell-based; settings: Homo sapiens, MCF7, read-out: Actual −Log(GI50) (converted)
Protocol: as §1

mice [2] = test: in vivo toxicity study in mice
Protocol: (§2) Five groups of mice (3 mice per group) were administered a 50 mg/kg dosage of Formula II.

mice [3] = settings: mouse, in vivo, 50 mg/kg
Protocol: as §2

| Structure (SMILES) | GI50 (Leukemia Cell Line K562; K562, read-out: Actual −Log(GI50) (converted)) [µM] | GI50 (Leukemia Cell Line P388; P388, read-out: Actual −Log(GI50) (converted)) [µM] | GI50 [1] [µM] | tolerated dosage (mice [2]) [mg/kg] | tolerability of dosage (mice [2]; 50 mg/kg dosage) | GI50 (Leukemia Cell Line K562; Leukemia Cell Line K562, in vitro result, read-out: Actual −Log(GI50) (converted)) [µM] | GI50 (Leukemia Cell Line P388; Leukemia Cell Line P388, in vitro result, read-out: Actual −Log(GI50) (converted)) [µM] | tolerability of dosage (mice [3]) |
| --- | --- | --- | --- | --- | --- | --- | --- | --- |
| CC1CN=C(c2ccc(NC(=O)c3ccc(C(=O)Nc4ccc(C5=NCC(C)CN5)cc4)nc3)cc2)NC1 (centres unmarked) [Formula II, N,N′-Bis[4-(1,4,5,6-tetrahydro-5-methyl-2-pyrimidinyl)phenyl]-2,5-pyridinedicarboxamide dihydrochloride] | 20 | 1 | 20 | ≤ 25 | not tolerated |  |  |  |
| Cc1ccc(NC(=O)c2ccc(CN3CCN(C)CC3)cc2)cc1Nc1nccc(-c2cccnc2)n1 [Gleevec ™, reference compound] |  |  |  |  |  | 1 | 2 | able to tolerate this dosage amount |
